According to paper PMC9226319, “Peripherally restricted transthyretin-based delivery system for probes and therapeutics avoiding opioid-related side effects” (Nature Communications, 2022):
Where “and” joins values, the source holds several entries; their conditions need not be identical. Equal entries are not always repeated. Where two headings read alike, the source gives them in different places.

Legend:
[1] = molecular target: TTR in human serum (Homo sapiens, UniProt P02766); assay: TTR serum fluorescent probe exclusion (FPE) selectivity assay; assay type: binding; conditions: ligand 10 µM; for % TTR occupancy in human serum: FPE probe 3.6 µM, 3 h reading relative to probe alone, text mean ± s.d., table replicates; for %FPE probe fluorescence: human serum, replicates
[2] = tested on: male Sprague-Dawley rats; conditions: rat, in vivo
[3] = tested on: male Sprague-Dawley rats; assay: Gastrointestinal (GI) transit (charcoal meal) assays; assay type: in vivo, rat; conditions: rat, in vivo
[4] = rat, single IV bolus 4.84 µmol/kg
[5] = rat, single SC dose 16 µmol/kg
[6] = in vivo; conditions: male, Sprague Dawley, rat, iv, 4.84 umol/kg
[7] = in vivo; conditions: male, Sprague Dawley, rat, sc, 16 umol/kg

Structure (SMILES): Cc1n[nH]c(C)c1CCCOc1cc(C(=O)O)ccc1F [AG10, reference compound]
- % TTR occupancy in human serum [1]: 97.40% and 95.62% and 96.92% and 97.81%
- %FPE probe fluorescence ([1]; time 0.000 h): 0.000%
- %FPE probe fluorescence ([1]; time 0.083 h): 0.700% and 0.333% and 1.346% and -0.971%
- %FPE probe fluorescence ([1]; time 0.250 h): 0.446% and 0.461% and 3.649% and -0.301%
- %FPE probe fluorescence ([1]; time 0.500 h): -1.954% and 0.832% and 3.724% and 2.441%
- %FPE probe fluorescence ([1]; time 1.000 h): -0.363% and 4.377% and 2.966% and 3.350%
- %FPE probe fluorescence ([1]; time 1.250 h): 2.954% and 2.394% and 3.246% and -1.477%
- %FPE probe fluorescence ([1]; time 1.500 h): 2.170% and 0.641% and 2.641% and 0.126%
- %FPE probe fluorescence ([1]; time 1.750 h): 0.743% and 3.255% and 1.620% and 2.521%
- %FPE probe fluorescence ([1]; time 2.000 h): 4.231% and 0.837% and 2.557% and 0.855%
- %FPE probe fluorescence ([1]; time 2.250 h): 5.793% and 2.286% and 2.057% and 0.029%
- %FPE probe fluorescence ([1]; time 2.500 h): 6.054% and 2.118% and 3.144% and 0.438%
- %FPE probe fluorescence ([1]; time 2.750 h): 2.727% and 2.921% and 3.595% and 1.032%
- %FPE probe fluorescence ([1]; time 3.000 h): 2.597% and 4.380% and 3.077% and 2.193%
- %FPE probe fluorescence ([1]; time 3.500 h): 3.724% and 3.796% and 4.505% and 2.484%
- %FPE probe fluorescence ([1]; time 3.750 h): 3.879% and 3.578% and 5.075% and 1.835%
- %FPE probe fluorescence ([1]; time 4.000 h): 3.514% and 5.359% and 4.237% and 1.611%
- %FPE probe fluorescence ([1]; time 4.250 h): 3.887% and 3.398% and 4.915% and 2.063%
- %FPE probe fluorescence ([1]; time 4.500 h): 4.733% and 4.892% and 5.145% and 3.486%
- %FPE probe fluorescence ([1]; time 4.750 h): 6.115% and 5.517% and 7.470% and 4.138%
- %FPE probe fluorescence ([1]; time 5.000 h): 6.088% and 5.023% and 7.566% and 3.162%
- %FPE probe fluorescence ([1]; time 5.250 h): 5.909% and 5.424% and 7.406% and 4.467%
- %FPE probe fluorescence ([1]; time 5.500 h): 6.587% and 5.102% and 7.881% and 3.568%
- %FPE probe fluorescence ([1]; time 5.750 h): 6.453% and 4.461% and 7.648% and 5.604%
- %FPE probe fluorescence ([1]; time 6.000 h): 4.737% and 6.705% and 8.837% and 3.939%

Structure (SMILES): CN1CC[C@]23c4c5ccc(O)c4O[C@H]2[C@@H](O)C=C[C@H]3[C@H]1C5 [Morphine, reference compound]
- hot plate latency ([2]; iv): 60 s
- hot plate latency ([2]; sc): 57.0 ± 2.5 s and 60 s
- hot plate latency, compound alone ([2]; sc): 60 s
- GI transit as % of saline group ([3]; sc): 18.81% and 20.1% and 15.01% and 14.94% and 19.9%

Structure (SMILES): C=CCN1CC[C@]23c4c5ccc(O)c4O[C@H]2C(=O)CC[C@@]3(O)[C@H]1C5 [Naloxone, reference compound]
- k [4]: 0.81 ± 0.13 h⁻¹
- k [5]: 1.03 ± 0.1 h⁻¹
- AUC(0-inf) [6]: 1.46 ± 0.257 µM·h
- Vd [6]: 1.23 ± 0.42 L/kg
- clearance [6]: 56.5 mL/min/kg
- half-life [6]: 52.2 ± 7.8 min
- AUC(0-inf) [7]: 1.76 ± 0.237 µM·h
- CL/F [7]: 152 mL/min/kg
- Vd/F [7]: 8.94 ± 2.08 L/kg
- half-life [7]: 40.2 ± 4.2 min

Structure (SMILES): COc1ccc2c3c1O[C@H]1C(=O)CC[C@@]4(O)[C@@H](C2)N(C)CC[C@]314 [Oxycodone, reference compound]
- k [5]: 0.9 ± 0.12 h⁻¹
- analgesia (hot plate) [2]: did not result in significant analgesia or constipation
- analgesic effect 1 hour after ICV dosing [2]: no analgesic effect
- hot plate latency ([2]; sc): 56.8 ± 3.8 s
- GI transit (% of vehicle) [3]: 18.7 ± 3.0%
- constipation (GI transit) [3]: did not result in significant analgesia or constipation
- GI transit (% of vehicle) ([3]; sc): 8.0 ± 2.7%
- GI transit as % of vehicle group ([3]; sc): 4.72% and 11.93% and 8.19% and 6.37% and 8.96%
- AUC(0-inf) [7]: 4.85 ± 0.676 µM·h
- CL/F [7]: 55.3 mL/min/kg
- half-life [7]: 46.8 ± 5.4 min

Structure (SMILES): O=C(O)c1ccc2nc(-c3cc(Cl)cc(Cl)c3)oc2c1 [Tafamidis, reference compound]
- % TTR occupancy in human serum [1]: 47.45% and 46.83% and 51.34% and 50.15%
- % TTR occupancy in human serum ([1]; listed as tafamidis): 48.9 ± 2.2%
- %FPE probe fluorescence ([1]; time 0.000 h): 0.000%
- %FPE probe fluorescence ([1]; time 0.083 h): 1.299% and -1.005% and 0.704% and 3.155%
- %FPE probe fluorescence ([1]; time 0.250 h): 4.449% and 1.397% and 6.031% and 9.730%
- %FPE probe fluorescence ([1]; time 0.500 h): 5.578% and 5.344% and 9.630% and 15.940%
- %FPE probe fluorescence ([1]; time 1.000 h): 17.103% and 15.634% and 16.546% and 22.347%
- %FPE probe fluorescence ([1]; time 1.250 h): 23.082% and 19.584% and 22.707% and 26.257%
- %FPE probe fluorescence ([1]; time 1.500 h): 27.125% and 23.274% and 25.961% and 28.688%
- %FPE probe fluorescence ([1]; time 1.750 h): 32.902% and 29.136% and 30.570% and 32.212%
- %FPE probe fluorescence ([1]; time 2.000 h): 35.080% and 33.047% and 36.500% and 37.379%
- %FPE probe fluorescence ([1]; time 2.250 h): 40.669% and 40.161% and 39.661% and 42.469%
- %FPE probe fluorescence ([1]; time 2.500 h): 46.027% and 42.493% and 42.354% and 44.462%
- %FPE probe fluorescence ([1]; time 2.750 h): 50.625% and 47.468% and 47.510% and 47.875%
- %FPE probe fluorescence ([1]; time 3.000 h): 53.169% and 48.662% and 49.846% and 52.554%
- %FPE probe fluorescence ([1]; time 3.500 h): 60.381% and 56.275% and 57.091% and 59.281%
- %FPE probe fluorescence ([1]; time 3.750 h): 61.493% and 61.080% and 58.641% and 60.288%
- %FPE probe fluorescence ([1]; time 4.000 h): 65.122% and 63.511% and 61.468% and 61.493%
- %FPE probe fluorescence ([1]; time 4.250 h): 66.463% and 64.406% and 63.696% and 64.254%
- %FPE probe fluorescence ([1]; time 4.500 h): 68.966% and 68.075% and 65.963% and 66.999%
- %FPE probe fluorescence ([1]; time 4.750 h): 72.160% and 67.655% and 67.312% and 67.678%
- %FPE probe fluorescence ([1]; time 5.000 h): 70.882% and 70.753% and 66.636% and 68.909%
- %FPE probe fluorescence ([1]; time 5.250 h): 72.950% and 73.018% and 69.707% and 71.230%
- %FPE probe fluorescence ([1]; time 5.500 h): 75.965% and 73.410% and 70.521% and 70.704%
- %FPE probe fluorescence ([1]; time 5.750 h): 76.955% and 73.721% and 71.869% and 74.221%
- %FPE probe fluorescence ([1]; time 6.000 h): 78.267% and 76.878% and 72.520% and 75.177%
